# Assay results published in publication PMC4627759, “Identification of Host-Plant Volatiles and Characterization of Two Novel General Odorant-Binding Proteins from the Legume Pod Borer, Maruca vitrata Fabricius (Lepidoptera: Crambidae)” (PLoS ONE, 2015).
# pIC50, pKi: −log10 of the molar value. “Also recorded” adds a separate entry of the source. Where two headings read alike, the source gives them in different places.
# Tests used:
# [1] = system: antennae of Maruca vitrata females; experiment: GC-EAD: antennal response of female moths to floral volatiles; conditions: volatiles of V. unguiculata flower buds/flowers
# Method: Headspace collections were initially analyzed by an Agilent Technologies 7890A GC with a flame ionization detector (FID) coupled with an electroantennogram detector (Syntech, Hilversum, The Netherlands) followed the procedures as described by with some modifications. The column was kept at 50°C for 1 min, increased to 200°C at a rate of 10°C/min and then increased to 240°C at a rate of 5°C/min, which was maintained for 5 min. The outlet of the GC column was split with a specific Electronic Pressure Control splitter (Agilent) to obtain the requested flow accuracy in a ratio of 1: 3 for the FID and the cut antenna. Volatile compounds eluting from the GC column were led to the mounted antenna through a heated (230°C) transfer line (TC-02, Syntech, Hilversum, the Netherlands). Each antenna was prepared by cutting both distal and basic segments and was immediately mounted on the holder using conductive gel (Spectra® 360; Parker Laboratories, Fairfield, New Jersey, USA). Each sample was tested five times. Each tested antenna was derived from a different female and used only once. Synthetic chemicals used in the experiments were purchased from Sigma Chemical Co., J&K Scientific Ltd., Tokyo Chemical Industry Co., Sinopharm Chemical Reagent Co. and Aladdin Chemistry Co., respectively.
# MvitGOBP1 = MvitGOBP1 (Maruca vitrata, UniProt A0A0S1S6H9); experiment: Fluorescence competitive binding assay (1-NPN displacement) with recombinant MvitGOBP1
# Method: (§1) Fluorescence binding activity was determined as described by previous study. Emission fluorescence spectra were recorded on a Hitachi F-4500 at 25°C in a right angle configuration, with a 1 cm light path quartz cuvette and 5 nm slits for both excitation and emission. The protein was dissolved in 20 mM Tris-HCl buffer, pH 7.4, and ligands were added as 1 mM methanol solutions. To measure the affinity of the fluorescent ligand 1-NPN to MvitGOBP1-2, a 2 μM protein solution in 20 mM Tris-HCl (pH 7.4) was titrated with aliquots of […] ligand in methanol to final concentrations of 2–16 μM. The probe was excited at 337 nm and emission spectra were recorded between 380 and 450 nm. The affinities of the other ligands were measured in competitive binding assays, where a solution of the protein and 1-NPN, both at a concentration of 2 μM, was titrated with 1 mM methanol solutions of each competitor over concentration ranges of 2–24 μM, depending on the ligand. The dissociation constant for 1-NPN and the stoichiometry of binding were obtained by processing the data using Prism software. Dissociation constants of the competitors were calculated from the corresponding IC50 values (concentrations of ligands halving the initial fluorescence value of 1-NPN), using the equation: Ki = [IC50] / (1 + [1-NPN] / K1-NPN), where [1-NPN] is the free concentration of 1-NPN and K1-NPN is the dissociation constant of the complex protein/1-NPN.
# Maruca vitrata females = experiment: Field trapping experiment with volatile-baited Delta-traps; format: in vivo; conditions: 100 μl of 100 ng/μl in hexane on rubber septa, one week, six traps, Student's t-test
# Method: Field trap experiments were determined as described by Wang et al. Custom-built Delta-traps with sticky inserts and rubber septa purchased from Pherobio Technology Co. Ltd. were used in the field experiments during the moth flight season in 2014. Traps were suspended from iron stakes and placed approximately 15 m apart. Key components of host-plant volatiles were prepared in hexane, and 100 μl solution (100 ng/μl) were added to rubber septa to be used as lures. Hexane was used as blank control and six trap replicates were used in the field experiment. Traps were checked everyday and the number of female moths per trap was determined for one week. Statistical analyses of trap data were used SPSS (SPSS Inc., Chicago, Illinous, U.S.A.), the significance of the differences between tested group and control group was evaluated by Student's t-test at P < 0.05 and P < 0.01.
# MvitGOBP2 = MvitGOBP2 (Maruca vitrata, UniProt A0A088MJX9); experiment: Fluorescence competitive binding assay (1-NPN displacement) with recombinant MvitGOBP2; conditions: for binding ability to MvitGOBP2 (in words): among the 17 tested compounds
# Method: as §1
# M. vitrata females = system: M. vitrata females; design: method as in earlier work; conditions: cited from earlier work
# [2] = dissociation constant calculated from IC50, 1-NPN competition, read-out: MvitGOBP1 Ki
# [3] = ligand concentration displacing 50% of fluorescence of MvitGOBP1/1-NPN complex, protein and 1-NPN 2 μM, pH 7.4, 25°C, read-out: MvitGOBP1 IC50
# [4] = dissociation constant calculated from IC50, 1-NPN competition, read-out: MvitGOBP2 Ki
# [5] = ligand concentration displacing 50% of fluorescence of MvitGOBP2/1-NPN complex, protein and 1-NPN 2 μM, pH 7.4, 25°C, read-out: MvitGOBP2 IC50
# [6] = '-' = exceeded 50 μM for half-maximal inhibition, read-out: MvitGOBP2 IC50 (class symbol)
# Sequence of MvitGOBP2 (A0A088MJX9 entry or part of it): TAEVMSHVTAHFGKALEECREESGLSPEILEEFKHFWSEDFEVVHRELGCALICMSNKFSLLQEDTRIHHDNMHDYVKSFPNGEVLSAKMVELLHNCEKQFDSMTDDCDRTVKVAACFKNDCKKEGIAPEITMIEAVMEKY
# Sequence of MvitGOBP1 (A0A0S1S6H9 entry or part of it): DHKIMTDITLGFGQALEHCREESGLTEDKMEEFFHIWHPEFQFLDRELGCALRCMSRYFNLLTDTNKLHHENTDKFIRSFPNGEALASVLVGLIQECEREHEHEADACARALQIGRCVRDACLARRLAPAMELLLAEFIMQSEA
pKi (MvitGOBP1; [2]),pIC50 (MvitGOBP1; [3]),Structure (SMILES),EAD/EAG response of female antennae (in words) [1],pKi (MvitGOBP2; [4]),pIC50 (MvitGOBP2; [5]),further results
,,"O=Cc1ccccc1O [Compound 7, 2-hydroxybenzaldehyde]",,,,pIC50 (MvitGOBP1): 4.68; pKi (MvitGOBP1): 4.81; pIC50 (MvitGOBP2): 4.38; pKi (MvitGOBP2): 4.64
4.57,4.44,"CCCCCCCCOC(=O)CCC [Compound 9, Butanoic acid octyl ester]",,5.07,4.89,EAD/EAG response of female antennae (in words) ([1]; listed as Butanoic acid octyl ester): EAG response was weaker than other plant volatiles; EAD/EAG response of female antennae (in words) ([1]; listed as butanoic acid octyl ester): responded; female moths caught in traps vs blank lure (Maruca vitrata females): significant difference compared with the blank lure; binding ability to MvitGOBP2 (in words) (MvitGOBP2): very great bind ability
4.74,4.62,"CC(=O)c1ccc(C)cc1C [Compound 12, 1-(2,4-Dimethylphenyl)-ethanone]",,,,pIC50 (MvitGOBP2; [6]): < 4.30
,,Oc1cccc2[nH]ccc12 [Compound 1H-indol-4-ol],responded,,,attraction of females in wind tunnel (in words) (M. vitrata females): significantly attracted many M. vitrata females; female moths caught in traps vs blank lure (Maruca vitrata females): significant difference compared with the blank lure
,,"O=Cc1ccccc1 [Compound 5, Benzaldehyde]",responded,,,pIC50 (MvitGOBP1): 4.65; pKi (MvitGOBP1): 4.78; pIC50 (MvitGOBP2): < 4.30
4.67,4.55,"CC(=O)c1ccccc1 [Compound 6, Acetophenone]",,4.58,4.40,
,,"CC(=O)c1ccc(C)cc1C [1-(2,4-Dimethylphenyl)-ethanone]",responded,,,
4.78,4.65,"Cc1cc(C)cc(C(C)(C)C)c1 [Compound 17, 1-(1,1-Dimethylethyl)-3,5-dimethylbenzene]",,,,pIC50 (MvitGOBP2; [6]): < 4.30
4.72,4.59,"CCc1ccc(CC)cc1 [Compound 4, 1,4-diethylbenzene]",,4.57,4.39,
,,CCC(=O)c1ccc(CC)cc1 [Compound 4-ethylpropiophenone],,,,female moths caught in traps vs blank lure (Maruca vitrata females): significant difference compared with the blank lure
4.54,4.41,"CCc1cccc(CC)c1 [Compound 3, 1,3-diethylbenzene]",,4.65,4.47,
,,"CCc1ccc(C(C)=O)cc1 [Compound 10, 1-(4-ethylphenyl)-ethanone]",,,,pIC50 (MvitGOBP1): 4.64; pKi (MvitGOBP1): 4.77; pIC50 (MvitGOBP2): 4.35; pKi (MvitGOBP2): 4.53
,,"CC(=O)c1ccc(C(C)=O)cc1 [Compound 16, 1,4-diacetyl benzene]",,,,pIC50 (MvitGOBP1): 4.52; pKi (MvitGOBP1): 4.64; pIC50 (MvitGOBP2): 4.30; pKi (MvitGOBP2): 4.48
4.85,4.72,"CCc1ccc(C=O)cc1 [Compound 8, 4-ethylbenzaldehyde]",,4.48,4.30,
4.96,4.84,"Oc1cccc2[nH]ccc12 [Compound 15, 1H-indol-4-ol]",,,,pIC50 (MvitGOBP2; [6]): < 4.30
,,CCc1ccc(C(C)=O)cc1 [1-(4-ethylphenyl)-ethanone],responded; also recorded: highest EAD responses,,,
,,CCc1ccc(C=O)cc1 [Compound 4-ethylbenzaldehyde],responded,,,

Structure (SMILES),pKi (MvitGOBP1; [2]),pIC50 (MvitGOBP1; [3]),EAD/EAG response of female antennae (in words) [1],pKi (MvitGOBP2; [4]),pIC50 (MvitGOBP2; [5]),further results
"CCCCOC(=O)CCC [Compound 1, Butanoic acid butyl ester]",4.90,4.77,responded,4.53,4.35,female moths caught in traps vs blank lure (Maruca vitrata females): significant difference compared with the blank lure
"CC(=O)c1ccc(O)c(C)c1 [Compound 14, 4-hydroxy-3-methylacetophenone]",4.74,4.61,,4.77,4.59,
"CCC(=O)c1ccc(CC)cc1 [Compound 13, 4-ethylpropiophenone]",4.82,4.69,,4.58,4.41,
"C=C(C)[C@H]1CC=C(C)CC1 [Compound 2, Limonene]",4.86,4.73,responded,4.53,4.36,attraction of females in wind tunnel (in words) (M. vitrata females): significantly attracted many M. vitrata females; also recorded: strong behavioral activity; female moths caught in traps vs blank lure (Maruca vitrata females; listed as Limonene): most female moths were trapped; female moths caught in traps vs blank lure (Maruca vitrata females; listed as limonene): significant difference compared with the blank lure; also recorded: highest trapping effect
"CC(C=O)Cc1ccccc1 (centres unmarked) [Compound 11, 2-methyl-3-phenylpropanal]",4.75,4.62,responded; also recorded: high electrophysiological responses,5.42,5.16,attraction of females in wind tunnel (in words) (M. vitrata females): attract significantly M. vitrata females; female moths caught in traps vs blank lure (Maruca vitrata females): significant difference compared with the blank lure; binding ability to MvitGOBP2 (in words) (MvitGOBP2): highest bind ability
